The values below come from patent publication US20230091225A1, “Bifunctional chimeric heterocyclic compounds for targeted degradation of androgen receptors and use thereof” (HINOVA PHARMACEUTICALS INC., priority 2019, published 2023).

Where two headings read alike, the source gives them in different places.

The assay deals with T1, androgen receptor (AR) (Homo sapiens, UniProt P10275).
T1 sequence (P10275 1-920): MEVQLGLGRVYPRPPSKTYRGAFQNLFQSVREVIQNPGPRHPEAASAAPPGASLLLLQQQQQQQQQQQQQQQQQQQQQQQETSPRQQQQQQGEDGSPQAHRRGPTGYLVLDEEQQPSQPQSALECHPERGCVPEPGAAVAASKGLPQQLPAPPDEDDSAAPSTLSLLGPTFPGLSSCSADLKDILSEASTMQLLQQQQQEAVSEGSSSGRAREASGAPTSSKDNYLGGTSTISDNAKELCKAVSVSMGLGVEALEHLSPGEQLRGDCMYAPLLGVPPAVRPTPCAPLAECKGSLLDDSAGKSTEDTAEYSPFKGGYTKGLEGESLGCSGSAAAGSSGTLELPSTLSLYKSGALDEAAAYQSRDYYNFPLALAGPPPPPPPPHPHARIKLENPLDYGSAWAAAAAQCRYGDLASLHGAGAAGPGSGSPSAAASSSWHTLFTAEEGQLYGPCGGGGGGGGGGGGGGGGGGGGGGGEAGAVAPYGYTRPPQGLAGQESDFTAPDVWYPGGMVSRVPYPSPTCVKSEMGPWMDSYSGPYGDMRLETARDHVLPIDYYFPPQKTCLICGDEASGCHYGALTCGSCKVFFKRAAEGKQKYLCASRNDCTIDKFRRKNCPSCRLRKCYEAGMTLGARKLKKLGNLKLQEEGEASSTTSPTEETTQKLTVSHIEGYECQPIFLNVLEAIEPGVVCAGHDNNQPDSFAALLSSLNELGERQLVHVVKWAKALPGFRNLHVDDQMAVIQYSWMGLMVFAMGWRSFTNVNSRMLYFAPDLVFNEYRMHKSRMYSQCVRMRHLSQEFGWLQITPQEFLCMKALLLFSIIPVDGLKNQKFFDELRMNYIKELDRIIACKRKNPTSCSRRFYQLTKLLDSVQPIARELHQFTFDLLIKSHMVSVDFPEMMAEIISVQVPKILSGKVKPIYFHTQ
In words: Degradation of androgen receptor (AR) protein in VCaP cells by ELISA. Particulars: for Dmax: VCaP. Type of assay: cell-based. A general note: In an ELISA, binding on a coated surface is turned into a signal by an enzyme label.

The mark [1] stands for this setting: AR degradation, VCaP cells, 16 h, ELISA, Table 3-1, read-out: DC50.
The mark [2] stands for this setting: AR degradation, VCaP cells, 16 h, ELISA, Table 3-2, read-out: DC50.
Where [3] appears, read: AR degradation, VCaP cells, 16 h, ELISA, Table 3-2, read-out: Dmax (%).
Where [4] appears, read: AR degradation, VCaP cells, 16 h, ELISA, Table 3-1, read-out: Dmax (%).

As to `N#Cc1ccc(O[C@H]2CC[C@H](NC(=O)c3ccc(N4CCC(CN5CCC6(CC5)CN(c5ccc7c(c5)C(=O)N(C5CCC(=O)NC5=O)C7=O)C6)CC4)nn3)CC2)cc1` (some centres unmarked) [Compound 131, N-((1r,4r)-4-(4-cyanophenoxy)cyclohexyl)-6-(4-((2-(2-(2,6-dioxopiperidin-3-yl)-1,3-dioxoisoindolin-5-yl)-2,7-diazaspiro[3.5]nonan-7-yl)methyl)piperidin-1-yl)pyridazine-3-carboxamide], the DC50 fell in the range of 10 to 100 nM and the greatest degradation seen (Dmax) is 60 to 80%.
As to `N#Cc1ccc(O[C@H]2CC[C@H](NC(=O)c3nnc(N4CCC(CN5CCC6(CC5)CN(c5cc7c(cc5F)C(=O)N(C5CCC(=O)NC5=O)C7=O)C6)CC4)s3)CC2)cc1Cl` (some centres unmarked) [Compound 244], the Dmax is > 80%. Moreover, under setting [1], the DC50 is < 10 nM.
`N#Cc1ccc(O[C@H]2CC[C@H](NC(=O)c3nnc(N4CCC(CN5CCC6(CC5)CN(c5ccc7c(c5)C(=O)N(C5CCC(=O)NC5=O)C7=O)C6)CC4)o3)CC2)cc1Cl` (some centres unmarked) [Compound 414]: the half-maximal degradation concentration (DC50) under setting [2] is < 10 nM. Moreover, under setting [3], the Dmax was > 80%.
`N#Cc1ccc(O[C@H]2CC[C@H](NC(=O)c3ccc(N4CCC(CN5CC6(C5)CN(c5ccc7c(c5)C(=O)N(C5CCC(=O)NC5=O)C7=O)C6)CC4)nn3)CC2)cc1Cl` (some centres unmarked) [Compound 121, N-((1r,4r)-4-(3-chloro-4-cyanophenoxy)cyclohexyl)-6-(4-((6-(2-(2,6-dioxopiperidin-3-yl)-1,3-dioxoisoindolin-5-yl)-2,6-diazaspiro[3.3]heptan-2-yl)methyl)piperidin-1-yl)pyridazine-3-amide]: the DC50 was < 10 nM and the Dmax was > 80%.
As to `CC1(C)[C@H](Oc2ccc(C#N)c(Cl)c2)C(C)(C)[C@H]1N1Cc2nc(C#CC3CN(C4CN(c5cc6c(cc5F)C(=O)N(C5CCC(=O)NC5=O)C6=O)C4)C3)ccc2C1=O` (some centres unmarked) [Compound 322], the DC50 under setting [1] was < 10 nM. In addition, under setting [4], the Dmax was 60 to 80%.
For `N#Cc1ccc(OC2CCC(NC(=O)c3cnc(N4CC5(CCN(CC6CCN(c7cc8c(cc7F)C(=O)N(C7CCC(=O)NC7=O)C8=O)CC6)CC5)C4)cn3)CC2)cc1Cl` (centres unmarked) [Compound 235, N-((1r,4r)-4-(3-chloro-4-cyanophenoxy)cyclohexyl)-5-(7-((1-(2-(2,6-dioxopiperidin-3-yl)-6-fluoro-1,3-dioxoisoindolin-5-yl)piperidine-4-yl)methyl)-2,7-diazaspiro[3.5]nonan-2-yl)pyrazine-2-carboxamide] the same measures were < 10 nM and > 80%.
`N#Cc1ccc(O[C@H]2CC[C@H](NC(=O)c3cnc(N4CCC(CN5CCC6(CC5)CN(c5ccc7c(c5)C(=O)N(C5CCC(=O)NC5=O)C7=O)C6)CC4)cn3)CC2)cc1Cl` (some centres unmarked) [Compound 241, N-((1r,4r)-4-(3-chloro-4-cyanophenoxy)cyclohexyl)-6-(4-((2-(2-(2-,2,6-dioxopiperidin-3-yl)-1,3-dioxoisoindolin-5-yl)-2,7-diazaspiro[3.5]nonan-7-yl)methyl)piperidin-1-yl)pyrazine-3-carboxamide]: the DC50 is < 10 nM and the Dmax is > 80%.
As for `CC1(C)[C@H](Oc2ccc(C#N)c(Cl)c2)C(C)(C)[C@H]1N1Cc2nc(C#C[C@H]3C[C@H](N4CCN(c5ccc6c(c5)C(=O)N(C5CCC(=O)NC5=O)C6=O)CC4)C3)cnc2C1=O` (some centres unmarked) [Compound 390], the 50% degradation concentration (DC50) under setting [2] was < 10 nM. In addition, under setting [3], the Dmax fell in the range of 60 to 80%.
Regarding `N#Cc1ccc(O[C@H]2CC[C@H](NC(=O)c3ccc(N4CCC(CN5CCC6(CC5)CN(c5ccc7c(c5)C(=O)N(C5CCC(=O)NC5=O)C7=O)C6)CC4)cc3)CC2)cc1Cl` (some centres unmarked) [Compound 192], under setting [1], the DC50 was < 10 nM. Moreover, the Dmax under setting [4] was > 80%.
`N#Cc1ccc(O[C@H]2CC[C@H](NC(=O)c3ccn([C@H]4CC[C@H](CN5CCC6(CC5)CN(c5ccc7c(c5)C(=O)N(C5CCC(=O)NC5=O)C7=O)C6)CC4)n3)CC2)cc1Cl` (stereo partly drawn) [Compound 416, N-((1r,4R)-4-(3-chloro-4-cyanophenoxy)cyclohexyl)-1-((1r,4R)-4-((2-(2-(2,6-dioxopiperidin-3-yl)-1,3-dioxoisoindolin-5-yl)-2,7-diazaspiro[3.5]nonan-7-yl)methyl)cyclohexyl)-1H-pyrazole-3-formamide]: under setting [2], the DC50 was < 10 nM. In addition, under setting [3], the Dmax is > 80%.
`CC1(C)[C@H](Oc2ccc(C#N)c(Cl)c2)C(C)(C)[C@H]1N1Cc2nc(C#CC3CCC(N4CC5CC4CN5c4cc5c(cc4F)C(=O)N(C4CCC(=O)NC4=O)C5=O)CC3)cnc2C1=O` (some centres unmarked) [Compound 386]: the DC50 under setting [2] was > 300 nM. Under setting [3], the maximal degradation (Dmax) lay in the range of 40 to 60%.
Consider `CC1(C)[C@H](Oc2ccc(C#N)c(Cl)c2)C(C)(C)[C@H]1N1Cc2nc(C#CC3CCC(N4CC5(CCN(c6ccc7c(c6)C(=O)N(C6CCC(=O)NC6=O)C7=O)CC5)C4)CC3)ccc2C1=O` (some centres unmarked) [Compound 377, 2-Chloro-4-((1r,3r)-3-(2-((4-(7-(2-(2,6-dioxopiperidin-3-yl)-1,3-dioxoisoindolin-5-yl)-2,7-diazaspiro[3.5]nonan-2-yl)cyclohexyl)ethynyl)-5-oxo-5,7-dihydro-pyrrolo[3,4-b]pyridin-6-yl)-2,2,4,4-tetramethylcyclobutoxy) benzonitrile], for which the “Dmax (%)” value (AR degradation, VCaP cells, 16 h, ELISA, Table 3-1) is given as “++++ (>80%)”. For the same compound, the DC50 under setting [1] was < 10 nM.
As to `N#Cc1ccc(O[C@H]2CC[C@H](NC(=O)c3ncc(N4CC5(CCN(C6CCN(c7ccc8c(c7)C(=O)N(C7CCC(=O)NC7=O)C8=O)CC6)CC5)C4)cn3)CC2)cc1Cl` (some centres unmarked) [Compound 106, N-((1r,4r)-4-(3-chloro-4-cyanophenoxy)cyclohexyl)-5-(7-(1-(2-(2,6-dioxopiperidin-3-yl)-1,3-dioxoisoindolin-5-yl)piperidine-4-yl)-2,7-diazaspiro[3.5]nonan-2-yl)pyrimidine-2-carboxamide], the Dmax was < 40%. The DC50 under setting [2] is > 300 nM.
Turning to `CC1(C)[C@H](Oc2ccc(C#N)c(Cl)c2)C(C)(C)[C@H]1N1Cc2nc(C#C[C@H]3CC[C@H](N4CCN(c5ccc6c(c5)C(=O)N(C5CCC(=O)NC5=O)C6=O)CC4)CC3)ccc2C1=O` (some centres unmarked) [Compound 325], the 50% degradation concentration (DC50) under setting [1] was < 10 nM. Under setting [4], the Dmax was > 80%.
For `CC1(C)[C@H](Oc2ccc(C#N)c(Cl)c2)C(C)(C)[C@H]1N1Cc2nc(N3CCC(CN4CCN(c5ccc6c(c5)C(=O)N(C5CCC(=O)NC5=O)C6=O)CC4)CC3)cnc2C1=O` (some centres unmarked) [Compound 385], the DC50 under setting [2] lay within 100 to 300 nM. Besides, the Dmax under setting [3] was 60 to 80%.
With `CC1(C)[C@H](Oc2ccc(C#N)c(Cl)c2)C(C)(C)[C@H]1N1Cc2nc(C#CC3CCC(N4CCC5(CCN(c6ccc7c(c6)C(=O)N(C6CCC(=O)NC6=O)C7=O)C5)C4)CC3)ccc2C1=O` (some centres unmarked) [Compound 364, 2-Chloro-4-((1r,3r)-3-(2-((4-(7-(2-(2,6-dioxopiperidin-3-yl)-1,3-dioxoisoindolin-5-yl)-2,7-Diazaspiro[4.4]nonan-2-yl)cyclohexyl)ethynyl)-5-oxo-5,7-dihydro-6H-pyrrolo[3,4-b]pyridin-6-yl)-2,2,4,4-tetramethylcyclobutoxy) benzonitrile], the DC50 under setting [1] was < 10 nM. Moreover, under setting [4], the Dmax is > 80%.
Turning to `N#Cc1ccc(O[C@H]2CC[C@H](NC(=O)c3nc(N4CCC(CN5CCC6(CC5)CN(c5ccc7c(c5)C(=O)N(C5CCC(=O)NC5=O)C7=O)C6)CC4)no3)CC2)cc1Cl` (some centres unmarked) [Compound 413], the 50% degradation concentration (DC50) was < 10 nM and the Dmax is > 80%.
In the case of `C[C@@H]1CN(c2cnc(C(=O)N[C@H]3CC[C@H](Oc4ccc(C#N)c(Cl)c4)CC3)cn2)CCN1C[C@H]1[C@@H]2CN(c3cc4c(cc3F)C(=O)N(C3CCC(=O)NC3=O)C4=O)C[C@@H]21` (stereo partly drawn) [Compound 266, N-((1r,4R)-4-(3-chloro-4-cyanophenoxy)cyclohexyl)-5-((3R)-4-((1R,5S,6s)-3-(2-(2,6-dioxopiperidin-3-yl)-6-fluoro-1,3-dioxoisoindolin-5-yl)-3-azabicyclo[3.1.0]n-hexane-6-yl)methyl-3-methylpiperazin-1-yl)pyrazine-2-carboxamide], the 50% degradation concentration (DC50) under setting [1] fell in the range of 10 to 100 nM. For the same compound, the Dmax under setting [4] is > 80%.
Turning to `N#Cc1ccc(OC2CCC(NC(=O)c3cn(C4CCC(CN5CCC6(CC5)CN(c5cc7c(cc5F)C(=O)N(C5CCC(=O)NC5=O)C7=O)C6)CC4)cn3)CC2)cc1Cl` [Compound 112, N-((1r,4R)-4-(3-chloro-4-cyanophenoxy)cyclohexyl)-1-((1r,4R)-4-((2-(2,6-dioxopiperidin-3-yl)-6-fluoro-1,3-dioxoisoindolin-5-yl)-2,7-diazaspiro[3.5]nonan-7-yl)methyl)cyclohexyl)-1H-imidazole-4-carboxamide], the “Dmax (%)” value is reported as “+ (key: ++++: >80%; +++: 80%-60%; ++: 60%-40%; +: <40%)”. Further, the DC50 (read-out: DC50) was > 300 nM.

By DC50 is commonly meant the concentration giving 50% degradation. For orientation: Dmax means the largest share of the target that was removed.
